The record followed here is the OPERA property sets (Mansouri et al. 2018).

Settings in one data set: not given
`O=C(c1ccc(Br)cc1)c1ccc(Br)cc1` returned a boiling point of 395 °C and a melting point of 177 °C.

Take `O=C(O)c1cc(S(=O)(=O)O)ccc1O`: the melting point was 120 °C.

Consider `CC(C)CCCC(=O)O`, for which the boiling point was found to be 216 °C.

The compound `CCCC(O)C(CC)CO` (configuration not stated) returned a boiling point of 244 °C, a log10 vapour pressure (mmHg) of -2.52 and a melting point of -40 °C.

In turn, `COCCOCCOCCOC` gave a boiling point of 216 °C, a log10 vapour pressure (mmHg) of -1.39 and a melting point of -45 °C.

In turn, `CC1CNC(C)CN1` (configuration not stated) displayed a boiling point of 163 °C, a log10 vapour pressure (mmHg) of 0.422 and a melting point of 116 °C.

For the compound `C[Si](C)(Cl)C(Cl)Cl`, the boiling point is 149 °C and the melting point is -48 °C.

Compound `CC(C)CCCCCCC=O` gave a boiling point of 197 °C.

`NN(c1ccccc1)c1ccccc1` showed a log10 vapour pressure (mmHg) of -3.31 and a melting point of 50.5 °C.

As to `Cc1ccccc1`, the boiling point worked out at 111 °C, the log10 Henry constant (atm·m³/mol) was -2.18, the log10 biodegradation half-life (days) is 0.301 and the log10 vapour pressure (mmHg) amounted to 1.45. Also, the melting point is -94.9 °C and the ready biodegradability result is recorded as “readily biodegradable”.

`CC(=O)O[Si](C)(C)OC(C)=O` returned a boiling point of 165 °C and a melting point of -12.5 °C.

As to `COCC(C)N(C(=O)CCl)c1c(C)csc1C` (configuration not stated), the log10 Henry constant (atm·m³/mol) was -7.09 and the log10 vapour pressure (mmHg) was -3.56.

On to `C=COC(=O)CCC`, for which the melting point was 117 °C.

`CCOP(=S)(OCC)Oc1ccc([N+](=O)[O-])cc1` gave a boiling point of 375 °C, a log10 Henry constant (atm·m³/mol) of -6.53, a log10 Koc (L/kg) of 3.2 and a log10 vapour pressure (mmHg) of -5.18. This compound also returned a melting point of 6.1 °C.

Regarding `CC1CCOC(C)O1` (configuration not stated), the boiling point is 116 °C.

With `CN(C)c1ccc(C(=O)O)cc1`, the melting point worked out at 242 °C.

`O=C(c1ccccc1)c1cccc(Br)c1` returned a melting point of 81 °C.

Regarding `COCCOC(C)=O`, the boiling point turned out to be 143 °C, the log10 vapour pressure (mmHg) stood at 0.301, the melting point is -70 °C and the ready biodegradability result is reported as “readily biodegradable”.

As for `NCCCc1ccccc1`, the boiling point worked out at 221 °C.

`CCCc1cccs1` displayed a boiling point of 158 °C.

Regarding `CN(C)c1ccc(N=NS(=O)(=O)O)cc1`, the log10 Koc (L/kg) is 1.18.

On to `C=CCC1(C(C)CCC)C(=O)NC(=O)NC1=O` (configuration not stated), for which the melting point is 100 °C.

In turn, `CCCCCS(=O)(=O)O` registered a melting point of 15.9 °C.

`CC(O)C(C)(C)CO` (configuration not stated): the boiling point worked out at 208 °C.

`CCC(CC)C(CC)CC`: the boiling point was found to be 164 °C.

Consider `CCCC(C)(C)C`, for which the boiling point was 79.2 °C, the log10 biodegradation half-life (days) was 0.845, the log10 vapour pressure (mmHg) was determined as 2.02 and the melting point was -124 °C.

For the compound `COc1cccc(Br)c1`, the boiling point is 211 °C.

With `Cc1c(C)n(C)c2ccccc12`, the boiling point was determined as 283 °C and the melting point was 18 °C.

In turn, `CC/C=C\C/C=C\C/C=C\CCCCCCCC(=O)OC` displayed a log10 vapour pressure (mmHg) of -5.29.

`CC(C)CCCC(C)C` had a boiling point of 135 °C and a melting point of -103 °C.

For `CC[N+]1(C)CCCC(OC(=O)C(O)(c2ccccc2)c2ccccc2)C1.[Br-]` (configuration not stated), the melting point is 180 °C.

The compound `CCCCCCCI` registered a boiling point of 204 °C, a log10 Henry constant (atm·m³/mol) of -1.41, a log10 vapour pressure (mmHg) of -0.351 and a melting point of -48.2 °C.

The compound `C[Si](C)(C)CC(=O)O` registered a melting point of 41 °C.

Compound `O=C(Cc1ccccc1)Cc1ccccc1` yielded a boiling point of 331 °C, a log10 vapour pressure (mmHg) of -3.13 and a melting point of 35 °C.

`Oc1cccc(Nc2ccccc2)c1` came in with a boiling point of 340 °C and a melting point of 81.5 °C.

For the compound `Clc1cc2c(cc1Cl)Oc1cc(Cl)c(Cl)cc1O2`, the log10 Koa was 10.1, the log10 Koc (L/kg) was found to be 6.5, the log10 vapour pressure (mmHg) was -8.82 and the melting point worked out at 305 °C. The ready biodegradability result was “not readily biodegradable”.

`CCCCCCCCCOC(C)=O` had a boiling point of 210 °C and a melting point of -26 °C.

`COc1cc(O)c(C(=O)c2ccccc2)c(O)c1` had a melting point of 130 °C.

Compound `CCCCCCCC(=O)Cl` showed a boiling point of 196 °C and a melting point of -63 °C.

For `CC(C)CCOCCC(C)C`, the boiling point worked out at 172 °C, the log10 vapour pressure (mmHg) worked out at 0.146 and the ready biodegradability result was “not readily biodegradable”.

`CCOC(=O)C(CC)C(=O)OCC` registered a boiling point of 208 °C.

Take `Cc1ccc(C[N+](=O)[O-])cc1`: the melting point amounted to 11.5 °C.

Turning to `C1=CC=CCCC=C1`, the boiling point came to 146 °C.

The same data set, now with this note: fish.
As for `Cc1ccccc1`, the log10 BCF came out at 0.92.

`CCOP(=S)(OCC)Oc1ccc([N+](=O)[O-])cc1` returned a log10 BCF of 1.99 and a log10 biotransformation half-life (days) of -0.41.

Consider `Clc1cc2c(cc1Cl)Oc1cc(Cl)c(Cl)cc1O2`, for which the log10 BCF was 4.99 and the log10 biotransformation half-life (days) stood at 1.78.

For `CC(C)CCOCCC(C)C`, the log10 BCF is 2.23 and the log10 biotransformation half-life (days) is -0.45.

A word on the boiling point: it is the temperature of boiling at a given pressure. What is called melting point is the temperature of the solid-liquid transition.
